No end group written: not given here. *: point of attachment. dipalmitoylglyceryl = dipalmitoylglyceryl (diacylglyceryl moiety on the cysteine); Palmitoyl = CCCCCCCCCCCCCCCC(=O)*
Assays:
[1] = biological target: T1, LntPae (Pseudomonas aeruginosa, UniProt Q9ZI86); experiment: TLC of FP2 to FP3 conversion; assay type: biochemical; conditions: acyl donor, HA-treated enzyme; 500 uM GPL, 150 uM FP2, pH 7.5, 37 C, 90 min
T1 construct: gene lnt; full length, N-terminal thrombin-cleavable His6 tag, pET28a, expressed in E. coli C41(DE3); membrane protein in LMNG micelles or cubic mesophase
T1 sequence (Q9ZI86 1-511): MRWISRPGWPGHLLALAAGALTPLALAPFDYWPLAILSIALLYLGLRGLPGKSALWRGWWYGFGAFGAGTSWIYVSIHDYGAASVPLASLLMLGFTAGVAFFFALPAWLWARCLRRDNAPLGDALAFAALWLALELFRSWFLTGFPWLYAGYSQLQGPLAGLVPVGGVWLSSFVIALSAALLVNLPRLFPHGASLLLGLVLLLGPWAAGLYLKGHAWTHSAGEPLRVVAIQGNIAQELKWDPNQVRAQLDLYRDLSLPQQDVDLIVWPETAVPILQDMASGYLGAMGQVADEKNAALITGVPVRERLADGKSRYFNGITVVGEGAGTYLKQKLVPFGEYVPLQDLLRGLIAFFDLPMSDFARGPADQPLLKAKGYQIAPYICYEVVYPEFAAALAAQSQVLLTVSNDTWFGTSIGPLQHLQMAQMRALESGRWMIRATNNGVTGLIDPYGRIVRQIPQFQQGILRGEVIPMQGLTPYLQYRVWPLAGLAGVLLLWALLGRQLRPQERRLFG

[2] = biological target: T2, LntEco (Escherichia coli, UniProt P23930); experiment: TLC of FP2 to FP3 conversion; assay type: biochemical; conditions: acyl donor, HA-treated enzyme; 500 uM GPL, 150 uM FP2, pH 7.5, 37 C, 90 min
T2 construct: gene lnt; full length, N-terminal thrombin-cleavable His6 tag, pET28a, expressed in E. coli C43(DE3); membrane protein in LMNG or DDM micelles; 57 kDa; HA-treated for GPL specificity assay

[3] = biological target: T2, LntEco; experiment: X-ray crystallography (in surfo); assay type: binding; conditions: covalent; dithiocarbamate at catalytic Cys387; lyso-PE also bound; 2.66 A
[4] = biological target: T1, LntPae; experiment: X-ray crystallography (in meso); assay type: binding; conditions: covalent; at catalytic Cys382; two monooleins in pocket; 2.6 A
[5] = biological target: T3, LntEco Cys387Ala (apolipoprotein N-acyltransferase from E. coli, inactive mutant) (E. coli, UniProt P23930 1-512, Cys387Ala); experiment: cryo-EM structure; Lnt mutant (16 mg/ml) incubated with Pam3CSK4 or FP2 (10 mg/ml in DMSO) for 1 hour at 21°C, then Superdex 200 10/300 Increase in 20 mM sodium citrate pH 6, 150 mM NaCl, 0.001% LMNG; protein in a detergent micelle; conditions: both partners purified
T3 construct: Apolipoprotein N-acyltransferase Lnt, E. coli, 57-kDa membrane protein; gene synthesized and cloned into pET28a (Nde I/Xho I); residues counted in E. coli numbering; The His6 tag is thrombin-cleavable; no cleavage step is described; In a detergent micelle (LMNG); also called Lnt Cys387Ala; C387A; source: E. coli C43(DE3), purified (Ni-NTA, Superdex 200) in LMNG

## CCCCCCCC/C=C\CCCCCCCC(=O)O[C@H](COC(=O)CCCCCCCCCCCCCCC)COP(=O)(O)OCCN [POPE, palmitoyloleoylphosphatidylethanolamine]
[1]
  TLC of FP2 to FP3 conversion: (POPE) were effective acyl donors for LntEco and LntPae
[2]
  TLC of FP2 to FP3 conversion: (POPE) were effective acyl donors for LntEco and LntPae

## CCCCCCCC/C=C\CCCCCCCC(=O)O[C@H](COC(=O)CCCCCCCCCCCCCCC)COP(=O)(O)OCC(O)CO (stereo partly shown) [POPG, palmitoyloleoylphosphatidylglycerol]
[1]
  TLC of FP2 to FP3 conversion: (POPE) were effective acyl donors for LntEco and LntPae
[2]
  TLC of FP2 to FP3 conversion: palmitoyloleoylphosphatidylglycerol (POPG) and palmitoyloleoylphosphatidylethanolamine (POPE) were effective acyl donors for LntEco

## CCCCCCCCCCCCCCN=C=S [TITC, tetradecyl-1-isothiocyanate]
[3]
  X-ray crystallography (in surfo): Crystals of the TITC-modified protein (Lnt-TITC), grown in the presence of E. coli GPLs
[4]
  X-ray crystallography (in meso): a structure of the TITC-modified LntPae was obtained with two monooleins in the binding pocket

B1: Pam3CSK4, Cys(Pam3)-Ser-(Lys)4 (peptide)
peptide: Palmitoyl-C(dipalmitoylglyceryl)SKKKK
notes: Printed in three-letter code: Cys-Ser-Lys-Lys-Lys-Lys; triacylated bacterial lipoprotein peptide analog; Triacylated lipopeptide; also called TA-BLPtide product; BLPtide; source: synthetic peptide (commercial or in-house synthesized BLP peptide analog)
[5]
  binding result: binds
